From patent US12649750B2, “Macrocyclic compounds, compositions, and methods of using thereof” (Sionna Therapeutics Inc., priority 2022, dated 2026)

Key:
[1] = biological target: T1, NBD1 (Homo sapiens, UniProt P13569); assay: Aggregation analysis using differential static light scattering (DSLS), thermal stability of NBD1 (ΔTagg); type: binding; conditions: ΔTagg versus DMSO control, NBD1 0.2 mg/ml
T1 construct: Purified recombinant NBD1 was produced using previously described methods; made in house
Summary of the method: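 Thermal aggregation of purified NBD1 was followed by static light scattering during a 1° C./min ramp to 70° C. Protein was at 0.2 mg/ml with 2 mM ATP at pH7.6. Each compound's Tagg was referenced to DMSO controls.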

[2] = biological target: T2, CFTR (Homo sapiens, UniProt P13569, DEL508-508); assay: TECC24 AUC fold over DMSO @10 μM, CFTR-mediated transepithelial chloride transport in CF-HBE cells; type: cell-based; conditions: test agent AUC divided by DMSO vehicle AUC, primary CF-HBE cells, ΔF508 homozygous donor, 48 hours incubation
T2 construct: Primary human bronchial epithelial cells from a ΔF508 homozygous CF donor; host or cells: primary human bronchial epithelial cells (CF-HBE), ΔF508 homozygous donor
Summary of the method: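 Value is ratio of test-agent to DMSO AUC of equivalent transepithelial Cl− current, integrated from forskolin (10 μM) stimulation to CFTR inhibitor-172 (20 μM) block, with benzamil 10 μM present. CF-HBE (ΔF508/ΔF508) cultures had 48 h compound exposure at 10 μM, 36.5° C before recording.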

T1 sequence (P13569 423-646 limits assumed): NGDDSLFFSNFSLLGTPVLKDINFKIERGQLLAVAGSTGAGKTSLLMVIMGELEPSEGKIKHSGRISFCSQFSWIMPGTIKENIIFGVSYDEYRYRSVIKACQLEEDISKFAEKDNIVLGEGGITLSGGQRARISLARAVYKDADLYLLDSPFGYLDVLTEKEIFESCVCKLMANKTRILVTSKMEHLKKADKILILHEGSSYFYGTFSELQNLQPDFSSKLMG
T2 sequence (P13569 with tags, fused parts or gaps DEL508-508): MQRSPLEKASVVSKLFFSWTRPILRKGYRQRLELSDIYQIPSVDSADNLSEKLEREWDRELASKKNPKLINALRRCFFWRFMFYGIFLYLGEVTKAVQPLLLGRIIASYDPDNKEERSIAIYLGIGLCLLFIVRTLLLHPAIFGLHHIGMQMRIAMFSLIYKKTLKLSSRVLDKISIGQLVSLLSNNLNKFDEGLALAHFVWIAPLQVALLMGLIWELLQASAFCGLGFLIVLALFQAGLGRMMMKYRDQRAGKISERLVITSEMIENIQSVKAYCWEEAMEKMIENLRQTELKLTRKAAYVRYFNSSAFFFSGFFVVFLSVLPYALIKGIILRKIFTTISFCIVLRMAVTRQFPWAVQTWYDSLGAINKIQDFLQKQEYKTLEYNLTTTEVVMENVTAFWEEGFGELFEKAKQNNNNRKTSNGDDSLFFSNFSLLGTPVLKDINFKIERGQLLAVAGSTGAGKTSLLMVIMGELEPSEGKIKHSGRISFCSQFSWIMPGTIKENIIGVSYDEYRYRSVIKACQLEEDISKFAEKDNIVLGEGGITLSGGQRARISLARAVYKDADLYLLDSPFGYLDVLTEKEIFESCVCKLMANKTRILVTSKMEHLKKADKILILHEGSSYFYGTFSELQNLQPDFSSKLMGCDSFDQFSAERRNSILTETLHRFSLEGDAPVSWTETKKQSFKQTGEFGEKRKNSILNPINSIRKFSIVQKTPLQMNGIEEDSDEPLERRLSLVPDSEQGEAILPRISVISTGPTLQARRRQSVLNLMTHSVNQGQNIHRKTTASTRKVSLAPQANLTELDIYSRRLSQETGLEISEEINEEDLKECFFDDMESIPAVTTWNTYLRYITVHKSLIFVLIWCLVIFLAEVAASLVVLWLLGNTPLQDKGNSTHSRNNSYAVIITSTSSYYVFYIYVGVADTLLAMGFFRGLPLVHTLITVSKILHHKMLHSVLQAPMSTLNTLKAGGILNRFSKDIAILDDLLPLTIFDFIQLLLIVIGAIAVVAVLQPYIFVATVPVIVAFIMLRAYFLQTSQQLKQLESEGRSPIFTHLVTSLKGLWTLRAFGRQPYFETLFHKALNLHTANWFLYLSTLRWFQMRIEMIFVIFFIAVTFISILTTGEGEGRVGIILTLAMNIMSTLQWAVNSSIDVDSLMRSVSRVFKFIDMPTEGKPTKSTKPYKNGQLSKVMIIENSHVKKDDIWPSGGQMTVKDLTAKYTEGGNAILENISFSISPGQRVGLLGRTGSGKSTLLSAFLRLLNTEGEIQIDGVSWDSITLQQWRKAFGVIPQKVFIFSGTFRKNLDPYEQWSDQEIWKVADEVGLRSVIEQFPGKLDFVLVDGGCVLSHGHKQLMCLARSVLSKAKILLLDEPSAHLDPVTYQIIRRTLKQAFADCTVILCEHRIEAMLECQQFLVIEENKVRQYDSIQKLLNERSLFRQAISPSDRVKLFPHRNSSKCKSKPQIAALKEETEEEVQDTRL

| Compound | DSLS 3D (100 μM ΔT) [1] | TECC (AUC, 10 μM) [2] |
| --- | --- | --- |
| CC1(C)CCCC(C)(c2cccc(CCC(=O)O)c2)c2csc(n2)-c2cccc(c2)Oc2c(F)cc3[nH]ccc3c2CCS(=O)(=O)C1 (stereo not shown) [Compound 50, 3-[3-(22-Fluoro-6,10,10-trimethyl-12,12-dioxo-24-oxa-3,12λ6-dithia-19,30-diazapentacyclo[23.3.1.12,5.015,23.016,20]triaconta-1(29),2(30),4,15,17,20,22,25,27-nonaen-6-yl)phenyl]propanoic Acid] | C (a value greater than 10 °C and less than or equal to 25 °C is marked “C”) | C (a value between 20 and 80 is marked “C”) |
| CC1(C)CCCC(c2cccc(CCC(=O)O)c2)n2cc(C#N)c(n2)-c2cc(ccc2F)Oc2c(F)cc3[nH]ccc3c2CCS(=O)(=O)C1 (single isomer, unassigned) [Compound 22B, 3-[3-[3-cyano-22,28-difluoro-10,10-dimethyl-12,12-dioxo-24-oxa-12lambda6-thia-5,19,30-triazapentacyclo[23.3.1.12,5.015,23.016,20]triaconta-1(29),2(30),3,15,17,20,22,25,27-nonaen-6-yl]phenyl]propanoic acid] | A (an ΔTagg value less than or equal to 5 °C is marked “A”) | B (a value between 12-20 is marked “B”) |
| COC(Cc1cccc(C2(C)CCCC(C)(C)CS(=O)(=O)CCc3c(c(F)cc4[nH]ccc34)Oc3ccc(F)c(c3)-c3nc2nn3C)c1)C(=O)O (single isomer, unassigned) [Compound 135B, 3-[3-(22,28-Difluoro-3,6,10,10-tetramethyl-12,12-dioxo-24-oxa-12λ6-thia-3,4,19,30-tetrazapentacyclo-[23.3.1.12,5.015,23.016,20]triaconta-1(29),2(30),4,15,17,20,22,25,27-nonaen-6-yl)phenyl]-2-methoxy-propanoic Acid] | C (a value greater than 10 °C and less than or equal to 25 °C is marked “C”) | C (a value between 20 and 80 is marked “C”) |
| C[C@@H](Cc1cccc(C2(C)CCCC(C)(C)CS(=O)(=O)CCc3c(c(F)cc4[nH]ccc34)Oc3ccnc(c3)-c3nc2nn3C)n1)C(=O)O (single isomer, unassigned) [Compound 266A] | A (an ΔTagg value less than or equal to 5 °C is marked “A”) | A (a TECC value less than 12 is marked “A”) |
| CC(Cc1cccc(C2(C)CCCC(C)(C)CS(=O)(=O)CCc3c(c(F)cc4[nH]ccc34)Cn3cc(ccc3=O)-c3nc2nn3C)c1)C(=O)O (single isomer, unassigned) [Compound 132B, 3-[3-(22-fluoro-3,6,10,10-tetramethyl-12,12,26-trioxo-12λ6-thia-3,4,19,25,30-pentazapentacyclo-[23.3.1.12,5.015,23.016,20]triaconta-1(29),2(30),4,15,17,20,22,27-octaen-6-yl)phenyl]-2-methyl-propanoic Acid] | C (a value greater than 10 °C and less than or equal to 25 °C is marked “C”) | A (a TECC value less than 12 is marked “A”) |
| Cc1cnn2c1-c1cc(ccc1F)Oc1c(F)cc3[nH]ccc3c1CCS(=O)(=O)CC(C)(C)CCCC2c1cccc(CCC(=O)O)c1 (single isomer, unassigned) [Compound 65A, 3-[3-(23,29-Difluoro-3,11,11-trimethyl-13,13-dioxo-25-oxa-13λ6-thia-5,6,20-triazapentacyclo[24.3.1.02,6.016,24.017,21]triaconta-1(30),2,4,16,18,21,23,26,28-nonaen-7-yl)phenyl]propanoic acid] | B (a value above 5 °C and less than or equal to 10 °C is marked “B”) | A (a TECC value less than 12 is marked “A”) |
| Cn1nc2nc1-c1cc(ccn1)[S+]([O-])c1c(F)c(F)c3[nH]ccc3c1CCS(=O)(=O)CC(C)(C)CCC[C@]2(C)c1cccc(CCC(=O)O)c1 (single isomer, unassigned) [Compound 281] | C (a value greater than 10 °C and less than or equal to 25 °C is marked “C”) | C (a value between 20 and 80 is marked “C”) |
| C[C@H](Cc1cccc([C@@]2(C)CCCC(C)(C)CS(=O)(=O)CCc3c(c(F)c(F)c4[nH]ccc34)Oc3ccnc(c3)-c3nc2nn3C)c1)C(=O)O [Compound 221, (2R)-3-[3-[(6R)-21,22-difluoro-3,6,10,10-tetramethyl-12,12-dioxo-24-oxa-12λ6-thia-3,4,19,28,30-pentazapentacyclo[23.3.1.12,5.015,23.016,20]triaconta-1(29),2(30),4,15,17,20,22,25,27-nonaen-6-yl]phenyl]-2-methyl-propanoic Acid] | C (a value greater than 10 °C and less than or equal to 25 °C is marked “C”) | B (a value between 12-20 is marked “B”) |
| Cn1nc2nc1-c1cc(ccc1F)[S+]([O-])c1c(F)cc3[nH]ccc3c1CCS(=O)(=O)CC(C)(C)CCC[C@]2(C)c1ccccc1 (single isomer, unassigned) [Compound 223A] | A (an ΔTagg value less than or equal to 5 °C is marked “A”) | A (a TECC value less than 12 is marked “A”) |
| Cn1nc2nc1-c1cc(ccc1F)Oc1c(F)cc3[nH]ccc3c1CCS(=O)(=O)CC(C)(C)CCCC2(C#N)c1cccc(CCC(=O)O)c1 (stereo not shown) [Compound 104, 3-[3-(6-Cyano-22,28-difluoro-3,10,10-trimethyl-12,12-dioxo-24-oxa-12lambda6-thia-3,4,19,30-tetrazapentacyclo[23.3.1.12,5.015,23.016,20]triaconta-1(29),2(30),4,15,17,20,22,25,27-nonaen-6-yl)phenyl]propanoic Acid] | C (a value greater than 10 °C and less than or equal to 25 °C is marked “C”) | C (a value between 20 and 80 is marked “C”) |
| C[C@H](Cc1cccc(C2(C)CCCC(C)(C)CS(=O)(=O)CCc3c(c(F)cc4[nH]ccc34)Oc3cc(ccn3)-c3nc2nn3C)c1)C(=O)O (single isomer, unassigned) [Compound 184] | B (a value above 5 °C and less than or equal to 10 °C is marked “B”) | A (a TECC value less than 12 is marked “A”) |
| CC(Cc1cccc(C2(C)COCC(C)(C)CS(=O)(=O)CCc3c(c(F)cc4[nH]ccc34)Oc3ccc(F)c(c3)-c3nc2nn3C)c1)C(=O)O (single isomer, unassigned) [Compound 113B] | A (an ΔTagg value less than or equal to 5 °C is marked “A”) | A (a TECC value less than 12 is marked “A”) |
| C[C@H](Cc1cccc([C@@]2(C)CCCC(C)(C)CS(=O)(=O)CCc3c(c(F)c(F)c4[nH]ccc34)Oc3ccc(F)c(c3)-c3nc2nn3C)c1)C(=O)O [Compound 200, (2R)-2-methyl-3-[3-[(6R)-21,22,28-trifluoro-3,6,10,10-tetramethyl-12,12-dioxo-24-oxa-12λ6-thia-3,4,19,30-tetrazapentacyclo[23.3.1.12,5.015,23.016,20]triaconta-1(29),2(30),4,15,17,20,22,25,27-nonaen-6-yl]phenyl]propanoic acid] | C (a value greater than 10 °C and less than or equal to 25 °C is marked “C”) | C (a value between 20 and 80 is marked “C”) |
| Cn1nc2nc1-c1cc(ccc1F)[S+]([O-])c1c(F)cc3[nH]ccc3c1CCS(=O)(=O)CC(C)(C)CCC[C@]2(C)c1cccc(CCO)c1 (single isomer, unassigned) [Compound 216B] | C (a value greater than 10 °C and less than or equal to 25 °C is marked “C”) | C (a value between 20 and 80 is marked “C”) |
| Cn1nc2nc1-c1cc(ccc1F)Oc1c(F)cc3[nH]ccc3c1CCS(=O)(=O)CC(C)(C)OCCC2(C)c1cccc(CC(=O)O)c1 (single isomer, unassigned) [Compound 5B, 2-[3-(22,28-Difluoro-3,6,10,10-tetramethyl-12,12-dioxo-9,24-dioxa-12λ^6-thia-3,4,19,30-tetrazapentacyclo[23.3.1.12,5.015,23.016,20]triaconta-1(29),2(30),4,15,17,20,22,25,27-nonaen-6-yl)phenyl]acetic Acid] | B (a value above 5 °C and less than or equal to 10 °C is marked “B”) | B (a value between 12-20 is marked “B”) |
| [2H]C([2H])([2H])C1(c2cccc(CCC(=O)O)c2)CCCC(C([2H])([2H])[2H])(C([2H])([2H])[2H])CS(=O)(=O)CCc2c(c(F)cc3[nH]ccc23)Oc2ccc(F)c(c2)-c2nc1nn2C (single isomer, unassigned) [Compound 98A, 3-[3-[22,28-difluoro-3-methyl-12,12-dioxo-6,10,10-tris(trideuteriomethyl)-24-oxa-12lambda6-thia-3,4,19,30-tetrazapentacyclo-[23.3.1.12,5.015,23.016,20]triaconta-1(29),2(30),4,15,17,20,22,25,27-nonaen-6-yl]phenyl]propanoic acid] | C (a value greater than 10 °C and less than or equal to 25 °C is marked “C”) | B (a value between 12-20 is marked “B”) |
| C[C@H](Cc1cccc(C2(C)CCCC(C)(C)CS(=O)(=O)CCc3c(c(F)cc4[nH]ccc34)Oc3ccc(F)c(c3)-c3nc2nn3C)c1)C(=O)O (single isomer, unassigned) [Compound 6A] | C (a value greater than 10 °C and less than or equal to 25 °C is marked “C”) | B (a value between 12-20 is marked “B”) |
